Measured values taken from BigSolDB 2.1.

COC(=O)[C@H](c1ccccc1Cl)N1CCc2sccc2C1.O=S(=O)(O)O
solubility (mole fraction)
Conditions | 273.15 K | 278.15 K | 283.15 K | 288.15 K | 293.15 K | 298.15 K | 303.15 K | 308.15 K
in MTBE | 6.2e-05 | 6.5e-05 | 7.5e-05 | 8.6e-05 | 0.000101 | 0.00011 | 0.000122 | 0.000125
in acetone | 0.0188 | 0.0262 | 0.0339 | 0.0436 | 0.0474 | 0.0567 | 0.0672 | 0.076
in ethyl acetate | 0.000278 | 0.000325 | 0.000342 | 0.000401 | 0.000457 | 0.000511 | 0.000543 | 0.000619
in isopropanol | 0.00815 | 0.0113 | 0.0132 | 0.0198 | 0.0237 | 0.0305 | 0.0382 | 0.0463
in methyl acetate | 0.000959 | 0.00103 | 0.00112 | 0.00122 | 0.00133 | 0.00151 | 0.00188 | 0.00214
in n-butanol | 0.0502 | 0.056 | 0.0655 | 0.0686 | 0.0771 | 0.08 | 0.0869 | 0.0952
in sec-butanol | 0.00377 | 0.00528 | 0.00678 | 0.00961 | 0.0127 | 0.016 | 0.0191 | 0.0238
